Patent US6426080B1, “Cosmetic preparation of active substances with high protection factor against free radicals” (Coty, B.V., priority 1998, dated 2002)

Experiments:
[1] = standard antioxidants, known parameter; cited from earlier work
[2] = activity against free radicals compared with SOD; assay type: biochemical
Excerpt: The Quebracho bark extract according to the invention or its hydrolysis product has a very high portion of proantho-cyanidines representing condensed tannins. […] The activity against free radicals was compared with that of SOD and found to be 42% for a 1 percent by weight solution of the extract (SOD 4%), 83% for a 2.5% by weight solution (SOD 15%)and 100% for a 5% by weight solution (SOD 38%). Preferably the extract (a) contains at least 95 percent by weight of proanthocyanidine oligomers and up to 5 percent by weight of gallic acid, in particular at least 99 percent by weight of proanthocyanidine oligomers and up to 1 percent by weight of gallic acid.

Row | Compound | radical protection factor (RPF) [1] | activity against free radicals ([2]; 1 percent by weight solution) | activity against free radicals ([2]; 2.5% by weight solution) | activity against free radicals ([2]; 5% by weight solution)
1 | Cc1c(C)c2c(c(C)c1O)CCC(C)(CCCC(C)CCCC(C)CCCC(C)C)O2 (racemic) [DL-α-tocopherol] | 41200 ×10^14 radicals/mg |  |  | 
2 | CC(=O)Oc1c(C)c(C)c2c(c1C)CCC(C)(CCC[C@H](C)CCC[C@H](C)CCCC(C)C)O2 (stereo partly shown) [a-tocopherol acetate] | about 48 ×10^14 radicals/mg |  |  | 
3 | CC(=O)OC/C=C(C)/C=C/C=C(C)/C=C/C1=C(C)CCCC1(C)C [all-trans retinal acetate] | 196 ×10^14 radicals/mg |  |  | 
4 | CC1=C(/C=C/C(C)=C/C=C/C(C)=C/CO)C(C)(C)CCC1 [all-trans-retinole] | 827 ×10^14 radicals/mg |  |  | 
5 | superoxide dismutase [SOD] |  | 4% | 15% | 38%
